Source: patent US4925853A, “Benzimidazoles as 5-lipoxygenase inhibitors” (Beecham Group PLC, priority 1984, dated 1990)
Counter-ions that a name gives are not always drawn.

Key:
[1] = system: development of arthritis in the rat adjuvant arthritis model; assay: Rat Adjuvant Arthritis Model (Method A); assay type: in vivo; conditions: 25 mg/kg (i.p.)
Method: Rat Adjuvant Arthritis Model
The test is as described by Newbould, Brit. J. Pharmacol., 1963, 21, 127-136.
It is used to indicate anti-rheumatic activity as shown by inhibiting the development of arthritis in the rat adjuvant arthritis model. The compound of Example 1 is active at a concentration of 25 mg/kg (i.p.)

[2] = system: 5-lipoxygenase enzyme; assay: RBL-1 5-Lipoxygenase Screen (Method B), cell free; assay type: biochemical; conditions: 2 min
Method: RBL-1 5-Lipoxygenase Screen
5-Lipoxygenase enzyme was prepared as a 10,000 g supernatant from RBL-1 cells by the method of Jakschik [Jakschik, B. A., F. F. Sun, L. M. Lee, and M. M. Steinhoff, 1980, Biochem. Biophys. Res. Comm. 95, 103]. The 10,000 g supernatant was diluted with homogenization buffer to the equivalent of 1.5-2.5×10^7 cells. ml^-1 and made 2 mM with respect to CaCl2. Aliquots of 0.5 ml were then dispensed into tubes, and incubated at 29° C. with 5 μl ethanol or compound in ethanol at the desired concentration for 2 min. Then […] arachidonic acid was added in buffer to give final concentration of 6.3 μM and 0.2 μCi per incubation, and the reaction continued at 29° C. for 2 min. The reaction was terminated by adding 1 ml of acetone and cooling on ice, 0.5 ml of ice-cold saline and 10 μl of 2N formic acid were added, and the mixture was extracted with 2×2 ml of chloroform. The extract was stored under N2 at -20° C. until analysis by chromatography.
This test is used to show inhibition of the 5-lipoxygenase enzyme in a mammalian RBL-1 cell free 5-lipoxygenase assay.

[3] = system: carrageenin-induced pleurisy in the rat; assay: Carrageenin-induced pleurisy in the rat (Method C); assay type: in vivo; conditions: 1 hour before and 24 and 48 hours after carrageenin
Method: CARRAGEENIN-INDUCED PLEURISY IN THE RAT This model of monocyte accumulation is based on the method of R. Vinegar, J. F. Truax, J. […] [Federation Proceedings 41, 2588-2595, 1982]. 0.2 ml of a 2.0% solution of λ-carrageenin (Viscarin 402) in saline was injected intrapleurally in anaesthetised rats (wt. approx. 175-200 g). […] Exudate volume was calculated from the dilution of the phenol red injected, determined spectrophotometrically (560 nm) and cellular content estimated with a DNA assay [[…]. and Wollenberger A. Anal. Biochem. 77, 464-470, 1977]. This test is used to indicate anti-inflammatory activity against carrageenin-induced pleurisy in the rat.

[4] = system: SRS-A release; assay: Rat passive peritoneal anaphylaxis (PPA), SRS-A release (Method D); assay type: in vivo; conditions: final concentration of 2×10^-4 M, intraperitoneal
Source text: Rat passive peritoneal anaphylaxis (PPA) The method is essentially similar to that described previously by Ross et al (Ross, Janet W., Smith, H. and Spicer, Barbara A. Increased vascular permeability during passive peritoneal anaphylaxis in the rat. Int. Arch. Allergy appl. Innum. 51, 226, 1976.) Charles River Sprague Dawley male rats of 225-275 g and Dunkin Hartley male white guinea pigs of 300-700 g were used. Charles River Sprague Dawley male rats of 225-275 g were given intraperitoneal injections of 0.5 ml of either Bordetella pertussis vaccine (4×10^10 organisms/ml; Burroughs Wellcome, London) or Pertussis vaccine absorbed (not less than 41.u. B. pertussis antigen with aluminium hydroxide; The Lister Institute Elstree, England), and subcutaneous injections of 0.5 ml of an emulsion of 100 mg of ovalbumin (chicken egg albumin; crystallised and lyophilised, grade V, Sigma, London) in 2 ml of isotonic saline and 3 ml of incomplete Freund's adjuvant. The rats were bled by cardiac puncture, under ether anaesthesia,on day 18, the blood was pooled and the serum separated, stored at -20° C. and thawed only once before use. The serum produced 72 hour passive cutaneous anaphylaxis activity in recipient rats to a dilution of 1:64 which was decreased to a dilution of less than 1:2 by heating at 56° C. for 4 hours. Rats were given intraperitoneal injections of 2 ml of a 1:5 dilution of the rat anti-serum in isotonic saline. Two hours later 0.3 ml of 5% solution of Pontamine Sky Blue (Raymond A. Lamb, London) in isotonic saline was injected intraveneously, followed by an intraperitoneal injection of the test compound in 1 ml of saline; (control rats received 1 ml of saline); followed 2.5 minutes later by an intraperitoneal injection of 5 ml of a Tyrode solution containing 50 μg/ml heparin and 0.4 mg/ml of ovalbumin. The concentrations of the compounds were quoted as that in the 6 ml of fluid injected intraperitoneally. […]

Compound | anti-inflammatory activity against carrageenin-induced pleurisy ([3]; 25 mg/kg (p.o.)) | % inhibition of SRS-A release compared to controls [4] | other results
Cc1ccc(O)c2[nH]c(Cc3ccccc3)nc12 [Example 1, 2-Benzyl-4-hydroxy-7-methylbenzimidazole] |  |  | anti-rheumatic activity: inhibition of the development of arthritis in the rat adjuvant arthritis model [1]: active; percentage inhibition (5-lipoxygenase; formation of 5-HETE and 5,12-diHETE) ([2]; 0.5 μM concentration, p<0.01): 36.0 percentage; percentage inhibition (5-lipoxygenase; formation of 5-HETE and 5,12-diHETE) ([2]; 5 μM concentration, p<0.001): 78.1 percentage
Cc1ccc(Cc2nc3c(C)ccc(O)c3[nH]2)cc1 [Example 10, 2-(4'-Methylbenzyl)-4-hydroxy-7-methylbenzimidazole] | active |  | 
COc1ccc(Cc2nc3c(C)ccc(O)c3[nH]2)cc1.Cl [Example 12, 2-(4'-Methoxybenzyl)-4-hydroxy-7-methylbenzimidazole hydrochloride] | active | 58% | 
Cc1ccc(O)c2[nH]c(CCCCCC(=O)O)nc12 [Example 18, 6-(4-Hydroxy-7-methyl-benzimidazol-2-yl)-hexanoic acid hydrochloride hydrate (3:3:1)] |  |  | anti-inflammatory activity against carrageenin-induced pleurisy ([3]; 12 mg/kg (i.p)): active
COc1cc(Cc2nc3c(C)ccc(O)c3[nH]2)cc(OC)c1OC.Cl [Example 25, 2-(3',4',5'-Trimethoxybenzyl)-4-hydroxy-7-methylbenzimidazole hydrochloride] |  | 59% | 
COc1ccc(Cc2nc3c(C)ccc(O)c3[nH]2)cc1OC.Cl [Example 26, 2-(3',4'-Dimethoxybenzyl)-4-hydroxy-7-methylbenzimidazole hydrochloride] |  | 55% | 
